According to PubChem BioAssay AID248 (DTP/NCI, 2004):
Toxic doses and inconclusive results are not listed. Rule as the data show it: active = T/C of 150% or more; inactive = T/C below 125%.

Test system: L1210 leukemia ip in BDF1 mice, survival T/C
Test: NCI In Vivo Anticancer Drug Screen. Data for tumor model L1210 Leukemia (intraperitoneal) in B6D2F1 (BDF1) mice
Settings: endpoint: mean survival time, higher = longer survival
How it was run: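 Mice bearing the transplanted tumor received compound or vehicle. Survival of the treated group was divided by that of the vehicle-treated control group to give the ratio.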

[1] = dose: 100.0 mg/kg/injection, schedule: Q01DX009 (ip), vehicle: Klucel (hydroxypropylcellulose) (HPC)
[2] = dose: 200.0 mg/kg/injection, schedule: Q01DX009 (ip), vehicle: Klucel (hydroxypropylcellulose) (HPC)
[3] = dose: 200.0 mg/kg/injection, schedule: Q04DX003 (ip), vehicle: Klucel (hydroxypropylcellulose) (HPC)
[4] = dose: 400.0 mg/kg/injection, schedule: Q01DX009 (ip), vehicle: Klucel (hydroxypropylcellulose) (HPC)
[5] = dose: 400.0 mg/kg/injection, schedule: Q04DX003 (ip), vehicle: Klucel (hydroxypropylcellulose) (HPC)
[6] = dose: 25.0 mg/kg/injection, schedule: Q04DX003 (ip), vehicle: saline with Tween-80
[7] = dose: 50.0 mg/kg/injection, schedule: Q04DX003 (ip), vehicle: saline with Tween-80
[8] = dose: 100.0 mg/kg/injection, schedule: Q04DX003 (ip), vehicle: saline with Tween-80
[9] = dose: 100.0 mg/kg/injection, schedule: Q04DX003 (ip), vehicle: saline
[10] = dose: 100.0 mg/kg/injection, schedule: Q01DX001 (ip), vehicle: saline
[11] = dose: 200.0 mg/kg/injection, schedule: Q01DX001 (ip), vehicle: saline
[12] = dose: 400.0 mg/kg/injection, schedule: Q01DX001 (ip), vehicle: saline
[13] = dose: 200.0 mg/kg/injection, schedule: Q04DX003 (ip), vehicle: saline with Tween-80
[14] = dose: 400.0 mg/kg/injection, schedule: Q04DX003 (ip), vehicle: saline with Tween-80
[15] = dose: 100.0 mg/kg/injection, schedule: Q01DX009 (ip), vehicle: saline with Tween-80
[16] = dose: 200.0 mg/kg/injection, schedule: Q01DX009 (ip), vehicle: saline with Tween-80
[17] = dose: 400.0 mg/kg/injection, schedule: Q01DX009 (ip), vehicle: saline with Tween-80
[18] = dose: 50.0 mg/kg/injection, schedule: Q01DX009 (ip), vehicle: saline with Tween-80

Measured: T/C

CC1(C)C=C(C(Br)c2cccc(Br)c2)C(=O)c2ccccc21 (stereo unspecified)
inactive: [1] 101 % of control | dose: 100.0 mg/kg/injection, schedule: Q04DX003 (ip), vehicle: Klucel (hydroxypropylcellulose) (HPC) 97 % of control | [2] 100 % of control | [3] 95 % of control | [4] 102 % of control | [5] 103 % of control

C/C=C/C(=O)OC(=O)/C=C/C
inactive: [6] 94 % of control | [7] 98 % of control | [8] 113 % of control | [9] 114 % of control

CC1CN(Cc2ccccc2)CC(C)N1C(=O)c1ccccc1 (stereo unspecified)
inactive: dose: 100.0 mg/kg/injection, schedule: Q01DX009 (ip), vehicle: water 95 % of control | dose: 100.0 mg/kg/injection, schedule: Q04DX003 (ip), vehicle: water 109 % of control | dose: 200.0 mg/kg/injection, schedule: Q01DX009 (ip), vehicle: water 93 % of control | dose: 200.0 mg/kg/injection, schedule: Q04DX003 (ip), vehicle: water 113 % of control | dose: 400.0 mg/kg/injection, schedule: Q01DX009 (ip), vehicle: water 104 % of control | dose: 400.0 mg/kg/injection, schedule: Q04DX003 (ip), vehicle: water 110 % of control

CC(C)(C)NC(c1ccccc1)C(NC(C)(C)C)c1ccccc1 (stereo unspecified)
inactive: dose: 50.0 mg/kg/injection, schedule: Q01DX001 (ip), vehicle: saline with Tween-80 91 % of control | dose: 100.0 mg/kg/injection, schedule: Q01DX001 (ip), vehicle: saline with Tween-80 91 % of control | dose: 200.0 mg/kg/injection, schedule: Q01DX001 (ip), vehicle: saline with Tween-80 94 % of control

CCC(C(=O)O)C(C)(C)O (stereo unspecified)
inactive: [10] 93 % of control | [11] 93 % of control | [12] 103 % of control

OC(c1ccccc1)C(Nc1ccccc1)c1ccccc1 (stereo unspecified)
inactive: dose: 75.0 mg/kg/injection, schedule: Q01DX001 (ip), vehicle: saline 102 % of control | [8] 96 % of control | dose: 150.0 mg/kg/injection, schedule: Q01DX001 (ip), vehicle: saline 94 % of control | [13] 98 % of control | dose: 300.0 mg/kg/injection, schedule: Q01DX001 (ip), vehicle: saline 97 % of control | [14] 93 % of control

OCCN=Cc1ccccc1O.OCCN=Cc1ccccc1O.[Ni]
inactive: dose: 75.0 mg/kg/injection, schedule: Q01DX001 (ip), vehicle: other 103 % of control | dose: 150.0 mg/kg/injection, schedule: Q01DX001 (ip), vehicle: other 106 % of control

S=C(N/N=C\c1ccccc1)N/N=C/c1ccccc1
inactive: dose: 100.0 mg/kg/injection, schedule: Q04DX002 (ip), vehicle: gum acacia 93 % of control | dose: 200.0 mg/kg/injection, schedule: Q04DX002 (ip), vehicle: gum acacia 96 % of control | dose: 400.0 mg/kg/injection, schedule: Q04DX002 (ip), vehicle: gum acacia 93 % of control

c1ccc(C/C(N=Nc2ccccc2)=N\Nc2ccccc2)cc1
inactive: dose: 50.0 mg/kg/injection, schedule: Q01DX009 (ip), vehicle: Klucel (hydroxypropylcellulose) (HPC) 92 % of control | [1] 92 % of control | [2] 91 % of control | [4] 105 % of control

O=C(NC(=O)C1CC1)C1CC1
inactive: [15] 94 % of control | [8] 106 % of control | [16] 100 % of control | [13] 87 % of control | [17] 100 % of control | [14] 93 % of control

O=C(Cc1ccc(Cl)cc1)NC(NC(=O)Cc1ccc(Cl)cc1)C(Cl)(Cl)Cl
inactive: [1] 102 % of control | [2] 96 % of control | [4] 88 % of control

CC(=O)Nc1cc(Cl)cc2c1-c1ccc(Cl)cc1C2N(C)C (stereo unspecified)
inactive: dose: 50.0 mg/kg/injection, schedule: Q01DX001 (ip), vehicle: carboxymethylcellulose (CMC) 98 % of control | dose: 100.0 mg/kg/injection, schedule: Q01DX001 (ip), vehicle: carboxymethylcellulose (CMC) 90 % of control | dose: 200.0 mg/kg/injection, schedule: Q01DX001 (ip), vehicle: carboxymethylcellulose (CMC) 106 % of control | dose: 400.0 mg/kg/injection, schedule: Q01DX001 (ip), vehicle: carboxymethylcellulose (CMC) 98 % of control

CC1(C)CC(=O)C(c2ccc([N+](=O)[O-])cc2)=C(O)c2ccccc21
inactive: [18] 91 % of control | [15] 94 % of control | [16] 91 % of control

O=C(Cl)COc1c(Cl)cc(Cl)cc1Cl
inactive: dose: 100.0 mg/kg/injection, schedule: Q04DX002 (ip), vehicle: saline with Tween-80 107 % of control | dose: 200.0 mg/kg/injection, schedule: Q04DX002 (ip), vehicle: saline with Tween-80 107 % of control | dose: 400.0 mg/kg/injection, schedule: Q04DX002 (ip), vehicle: saline with Tween-80 103 % of control

Cc1ccc(OCc2c(COc3ccc(Cl)cc3)sc3ccc(Cl)cc23)cc1
inactive: dose: 12.5 mg/kg/injection, schedule: Q01DX009 (ip), vehicle: saline with Tween-80 97 % of control | dose: 25.0 mg/kg/injection, schedule: Q01DX009 (ip), vehicle: saline with Tween-80 95 % of control | [6] 87 % of control | [18] 101 % of control | [7] 87 % of control

Cc1cc(C)n(/N=C/c2ccc3c(c2)CCC3)c(=O)c1C#N
inactive: [3] 95 % of control | [5] 90 % of control

Cc1cc(Cl)n[nH]c1=O
inactive: [10] 105 % of control | [11] 104 % of control | [12] 102 % of control

CC(C)(O)c1cnc(OCc2ccccc2)nc1OCc1ccccc1
inactive: [1] 98 % of control | dose: 100.0 mg/kg/injection, schedule: Q04DX003 (ip), vehicle: other 101 % of control | [2] 100 % of control | dose: 200.0 mg/kg/injection, schedule: Q04DX003 (ip), vehicle: other 106 % of control | [4] 103 % of control | dose: 400.0 mg/kg/injection, schedule: Q04DX003 (ip), vehicle: other 101 % of control

Cc1ccc(S(=O)(=O)N/N=C/C(O)C(O)C(O)CO)cc1 (stereo unspecified)
inactive: [15] 94 % of control | [8] 94 % of control | [16] 103 % of control | [13] 94 % of control | [17] 96 % of control | [14] 96 % of control

OCCN1CCC(CCCC2CCNCC2)CC1
inactive: dose: 10.0 mg/kg/injection, schedule: Q01DX Z (ip), vehicle: saline 97 % of control | dose: 25.0 mg/kg/injection, schedule: Q01DX009 (ip), vehicle: saline 102 % of control | dose: 25.0 mg/kg/injection, schedule: Q04DX003 (ip), vehicle: saline 111 % of control | dose: 30.0 mg/kg/injection, schedule: Q01DX Z (ip), vehicle: saline 102 % of control | dose: 50.0 mg/kg/injection, schedule: Q01DX009 (ip), vehicle: saline 96 % of control | dose: 50.0 mg/kg/injection, schedule: Q04DX003 (ip), vehicle: saline 98 % of control | dose: 100.0 mg/kg/injection, schedule: Q01DX009 (ip), vehicle: saline 91 % of control | [9] 108 % of control
